Results taken from patent publication US12497349B2, “Salts of tranexamic acid esters” (Actera Ingredients, Inc., priority 2019, dated 2025).

Assay: Viscosity by vertical falling sphere method
Type: physicochemical
Conditions: room temperature 25±1° C.; 1.0 and 5.0 wt. % in water; compared to the tranexamate hydrochloride salt; FIG. 2
Experimental: Compositions of tranexamate ester salts with differing counter-ions as shown in Table 5 were prepared as follows. 1) Ingredients A to C were combined based on the weight ratios in Table 5. 2) The mixture was heated with stirring to 80±5° C. until all solids were dissolved. 3) The homogeneous mixture was removed from the heat and allowed to cool to room temperature (25±5° C.).
The viscosity at room temperature (25±1° C.) of Examples 13-16 was determined by the method of the vertical falling sphere using the equation μ=[2 (ρs−ρl) g a^2 ]/9v, where μ=dynamic viscosity, ρs=density of the sphere, ρl=density of the test material (Examples 13-16), g=standard gravity, a=radius of the sphere, and v=velocity of the sphere.
Results are represented in FIG. 2. […] Additionally, the tranexamate sulfonate salt yielded stable and homogeneous compositions not observed with the tranexamate hydrochloride salt (see Examples 1 to 12).

## CCCCCCCCCCCCCCCCOC(=O)C1CCC(CN)CC1.CS(=O)(=O)O (stereo not shown) [tranexamate sulfonate salt, Cetyl tranexamate mesylate]
  Viscosity: higher viscosity with increasing concentration
